The compounds below were run against T1, SIRT1 (Homo sapiens, UniProt Q96EB6) (assay: Trp mass spectrometry assay of SIRT1 activation). Settings: concentration giving 150% activation of SIRT1; Trp peptide substrate.
T1 sequence (Q96EB6 1-747): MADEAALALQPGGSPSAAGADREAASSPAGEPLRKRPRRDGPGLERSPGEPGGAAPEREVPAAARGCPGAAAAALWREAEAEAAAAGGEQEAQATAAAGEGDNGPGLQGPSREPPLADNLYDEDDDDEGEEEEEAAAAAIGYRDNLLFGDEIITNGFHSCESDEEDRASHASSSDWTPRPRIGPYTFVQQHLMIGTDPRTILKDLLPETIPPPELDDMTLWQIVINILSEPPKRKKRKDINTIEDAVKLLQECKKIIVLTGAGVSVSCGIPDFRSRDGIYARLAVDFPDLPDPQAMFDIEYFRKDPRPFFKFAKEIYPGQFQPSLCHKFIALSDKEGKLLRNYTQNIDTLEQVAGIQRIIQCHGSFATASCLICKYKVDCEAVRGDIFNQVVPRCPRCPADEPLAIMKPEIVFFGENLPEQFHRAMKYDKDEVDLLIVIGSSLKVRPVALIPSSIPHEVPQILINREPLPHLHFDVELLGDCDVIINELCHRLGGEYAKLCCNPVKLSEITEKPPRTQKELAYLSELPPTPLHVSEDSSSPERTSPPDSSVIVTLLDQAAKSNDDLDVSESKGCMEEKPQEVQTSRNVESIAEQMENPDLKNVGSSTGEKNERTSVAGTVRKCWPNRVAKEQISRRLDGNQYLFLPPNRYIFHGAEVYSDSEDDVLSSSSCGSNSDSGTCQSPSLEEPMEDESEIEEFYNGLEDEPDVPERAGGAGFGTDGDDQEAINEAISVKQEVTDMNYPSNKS
Type: biochemical
How it was run: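 Activation read-out: mass-spec measurement of O-acetyl-ADP-ribose or deacetylated Trp peptide versus compound-free controls, giving EC1.5 and Percent Maximum Activation. Reactions ran 25 min at 25 °C, pH 7.5, with 120 μM βNAD+, 0.5 μM acetylated p53-derived peptide and 10 nM His-tagged SIRT1.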
With `CS(=O)(=O)c1cccc(-c2ccc3c(n2)N(C(=O)Nc2cc(-c4cnco4)ccn2)[C@H]2CCN3C2)c1` [Example 723] the “Tryp AVG EC1.5 (μM)” value was “A (A (EC1.5<1 μM))”. For `CS(=O)(=O)c1cccc(-c2ccc3c(n2)N(C(=O)Nc2cncc(-c4cnco4)c2)[C@H]2CCN3C2)c1` [Example 724], the “Tryp AVG EC1.5 (μM)” value was “A (A (EC1.5<1 μM))”. In the case of `NCc1ncc(-c2cccc(NC(=O)N3c4nc(-c5cccc(C(F)(F)F)c5)ccc4N4CC[C@H]3C4)c2)o1` [Example 725], the “Tryp AVG EC1.5 (μM)” value was “A (A (EC1.5<1 μM))”. For `O=C(Nc1cc(-c2cnco2)ccn1)N1c2nc(-c3cncc(C(F)(F)F)c3)ccc2N2C[C@@H](O)[C@H]1C2` [Example 726], the “Tryp AVG EC1.5 (μM)” value was “B (B (EC1.5 1-25 μM))”. `O=C(Nc1cc(-c2cnco2)ccn1)N1c2nc(-c3cncc(F)c3)ccc2N2CC[C@H]1C2` [Example 727] was tested, and the “Tryp AVG EC1.5 (μM)” value was “A (A (EC1.5<1 μM))”. With `O=C(Nc1cccc(CN2CCNCC2)c1)N1c2nc(-c3cccc(C(F)(F)F)c3)ccc2N2CC[C@H]1C2` [Example 731] the “Tryp AVG EC1.5 (μM)” value was “A (A (EC1.5<1 μM))”. In the case of `O=C(Nc1nnc(-c2ccncc2)s1)N1c2nc(-c3cccc(C(F)(F)F)c3)ccc2N2CC[C@H]1C2` [Example 733], the “Tryp AVG EC1.5 (μM)” value was “A (A (EC1.5<1 μM))”. In the case of `O=C(Nc1ncc(-c2ccccc2)s1)N1c2nc(-c3cccc(C(F)(F)F)c3)ccc2N2CC[C@H]1C2` [Example 734], the “Tryp AVG EC1.5 (μM)” value was “B (B (EC1.5 1-25 μM))”. With `CCCC(=O)c1cccc(NC(=O)N2c3nc(-c4cccc(C(F)(F)F)c4)ccc3N3CC[C@H]2C3)c1` [Example 736] the “Tryp AVG EC1.5 (μM)” value was “A (A (EC1.5<1 μM))”. In the case of `CCCCC(=O)c1cccc(NC(=O)N2c3nc(-c4cccc(C(F)(F)F)c4)ccc3N3CC[C@H]2C3)c1` [Example 737], the “Tryp AVG EC1.5 (μM)” value was “A (A (EC1.5<1 μM))”. For `O=C(Nc1cccc(-c2cnco2)n1)N1c2nc(-c3cncc(F)c3)ccc2N2CC[C@H]1C2` [Example 739], the “Tryp AVG EC1.5 (μM)” value was “A (A (EC1.5<1 μM))”. In the case of `CC(C)C(=O)c1cccc(NC(=O)N2c3nc(-c4cccc(C(F)(F)F)c4)ccc3N3CC[C@H]2C3)c1` [Example 740], the “Tryp AVG EC1.5 (μM)” value was “A (A (EC1.5<1 μM))”. `O=C(Nc1cccc(-c2cnco2)c1)N1c2nc(N3CCCN(CC(F)(F)F)CC3)ccc2N2CC[C@H]1C2` [Example 741] was tested, and the “Tryp AVG EC1.5 (μM)” value was “A (A (EC1.5<1 μM))”. With `CN1CCN(c2ccnc(NC(=O)N3c4nc(-c5cccc(C(F)(F)F)c5)ccc4N4CC[C@H]3C4)n2)CC1` [Example 742] the “Tryp AVG EC1.5 (μM)” value was “A (A (EC1.5<1 μM))”. With `O=C(Nc1cc(-c2cnco2)cc(-c2cnco2)c1)N1c2nc(-c3cccc(C(F)(F)F)c3)ccc2N2CC[C@H]1C2` [Example 743] the “Tryp AVG EC1.5 (μM)” value was “A (A (EC1.5<1 μM))”. In the case of `O=C(Nc1nccc(N2CCNCC2)n1)N1c2nc(-c3cccc(C(F)(F)F)c3)ccc2N2CC[C@H]1C2` [Example 745], the “Tryp AVG EC1.5 (μM)” value was “B (B (EC1.5 1-25 μM))”. In the case of `Cc1cc(-c2ccc3c(n2)N(C(=O)Nc2cc(-c4cnco4)ccn2)[C@H]2CCN3C2)ccn1` [Example 746], the “Tryp AVG EC1.5 (μM)” value was “A (A (EC1.5<1 μM))”. In the case of `CN(C)c1ccnc(NC(=O)N2c3nc(-c4cccc(C(F)(F)F)c4)ccc3N3CC[C@H]2C3)n1` [Example 747], the “Tryp AVG EC1.5 (μM)” value was “A (A (EC1.5<1 μM))”. For `Cc1cc(-c2ccc3c(n2)N(C(=O)Nc2cncc(-c4cnco4)c2)[C@H]2CCN3C2)ccn1` [Example 748], the “Tryp AVG EC1.5 (μM)” value was “A (A (EC1.5<1 μM))”. In the case of `CC(C)(C)OC(=O)NCC#Cc1cc(NC(=O)N2c3nc(-c4cccc(C(F)(F)F)c4)ccc3N3CC[C@H]2C3)cc(-c2cnco2)c1` [Example 749], the “Tryp AVG EC1.5 (μM)” value was “A (A (EC1.5<1 μM))”. In the case of `CC(C)(C)OC(=O)NCCCc1ccc(NC(=O)N2c3nc(-c4cccc(C(F)(F)F)c4)ccc3N3CC[C@H]2C3)cc1-c1cnco1` [Example 750], the “Tryp AVG EC1.5 (μM)” value was “A (A (EC1.5<1 μM))”. In the case of `CC(C)(C)OC(=O)NCC#Cc1ccc(NC(=O)N2c3nc(-c4cccc(C(F)(F)F)c4)ccc3N3CC[C@H]2C3)cc1-c1cnco1` [Example 751], the “Tryp AVG EC1.5 (μM)” value was “A (A (EC1.5<1 μM))”. In the case of `CC(C)(C)OC(=O)NCCCc1ccc(NC(=O)N2c3nc(-c4cccc(C(F)(F)F)c4)ccc3N3CCC[C@H]2C3)cc1-c1cnco1` [Example 752], the “Tryp AVG EC1.5 (μM)” value was “A (A (EC1.5<1 μM))”. For `CC(C)(C)OC(=O)NCC#Cc1ccc(NC(=O)N2c3nc(-c4cccc(C(F)(F)F)c4)ccc3N3CCC[C@H]2C3)cc1-c1cnco1` [Example 753], the “Tryp AVG EC1.5 (μM)” value was “A (A (EC1.5<1 μM))”. In the case of `CC(C)(C)OC(=O)NCCCc1cc(NC(=O)N2c3nc(-c4cccc(C(F)(F)F)c4)ccc3N3CCC[C@H]2C3)cc(-c2cnco2)c1` [Example 754], the “Tryp AVG EC1.5 (μM)” value was “A (A (EC1.5<1 μM))”. For `NCc1cccc(NC(=O)N2c3nc(-c4cccc(C(F)(F)F)c4)ccc3N3CC[C@H]2C3)c1` [Example 755], the “Tryp AVG EC1.5 (μM)” value was “B (B (EC1.5 1-25 μM))”. `NCCCCCC(=O)NCc1cccc(NC(=O)N2c3nc(-c4cccc(C(F)(F)F)c4)ccc3N3CCC[C@H]2C3)c1` [Example 756] was tested, and the “Tryp AVG EC1.5 (μM)” value was “A (A (EC1.5<1 μM))”. In the case of `NCc1cccc(NC(=O)N2c3nc(-c4cccc(C(F)(F)F)c4)ccc3N3CCC[C@H]2C3)c1` [Example 757], the “Tryp AVG EC1.5 (μM)” value was “A (A (EC1.5<1 μM))”. `NCCCCCC(=O)NCc1cccc(NC(=O)N2c3nc(-c4cccc(C(F)(F)F)c4)ccc3N3CC[C@H]2C3)c1` [Example 758] was tested, and the “Tryp AVG EC1.5 (μM)” value was “A (A (EC1.5<1 μM))”. `CC(C)(C)OC(=O)NCCCc1cc(NC(=O)N2c3nc(-c4cccc(C(F)(F)F)c4)ccc3N3CC[C@H]2C3)cc(-c2cnco2)c1` [Example 759] was tested, and the “Tryp AVG EC1.5 (μM)” value was “B (B (EC1.5 1-25 μM))”. With `CC(C)(C)OC(=O)NCC#Cc1cc(NC(=O)N2c3nc(-c4cccc(C(F)(F)F)c4)ccc3N3CCC[C@H]2C3)cc(-c2cnco2)c1` [Example 760] the “Tryp AVG EC1.5 (μM)” value was “A (A (EC1.5<1 μM))”. For `FC(F)(F)c1cccc(-c2ccc3c(n2)N(C(=S)Nc2cccc(-c4cnco4)c2)[C@H]2CCN3C2)c1` [Example 763], the “Tryp AVG EC1.5 (μM)” value was “A (A (EC1.5<1 μM))”. In the case of `NCCCc1ccc(NC(=O)N2c3nc(-c4cccc(C(F)(F)F)c4)ccc3N3CC[C@H]2C3)cc1-c1cnco1` [Example 765], the “Tryp AVG EC1.5 (μM)” value was “A (A (EC1.5<1 μM))”. For `NCC#Cc1ccc(NC(=O)N2c3nc(-c4cccc(C(F)(F)F)c4)ccc3N3CC[C@H]2C3)cc1-c1cnco1` [Example 766], the “Tryp AVG EC1.5 (μM)” value was “A (A (EC1.5<1 μM))”. For `NCCCc1ccc(NC(=O)N2c3nc(-c4cccc(C(F)(F)F)c4)ccc3N3CCC[C@H]2C3)cc1-c1cnco1` [Example 767], the “Tryp AVG EC1.5 (μM)” value was “A (A (EC1.5<1 μM))”. With `NCCCc1cc(NC(=O)N2c3nc(-c4cccc(C(F)(F)F)c4)ccc3N3CCC[C@H]2C3)cc(-c2cnco2)c1` [Example 770] the “Tryp AVG EC1.5 (μM)” value was “A (A (EC1.5<1 μM))”. With `N=C(N)NCc1ncc(-c2cccc(NC(=O)N3c4nc(-c5cccc(C(F)(F)F)c5)ccc4N4CC[C@H]3C4)c2)o1` [Example 776] the “Tryp AVG EC1.5 (μM)” value was “A (A (EC1.5<1 μM))”. In the case of `N=C(N)NCc1ccc(NC(=O)N2c3nc(-c4cccc(C(F)(F)F)c4)ccc3N3CCC[C@H]2C3)cc1` [Example 777], the “Tryp AVG EC1.5 (μM)” value was “A (A (EC1.5<1 μM))”. `O=C(Nc1ccccn1)N1c2cc(-c3cccc(C(F)(F)F)c3)ccc2N2CC[C@H]1C2` [Example 785] was tested, and the “Tryp AVG EC1.5 (μM)” value was “C (C (EC1.5>25 μM))”. In the case of `O=C(Nc1cccc(-c2cnco2)c1)N1c2cc(-c3cccc(C(F)(F)F)c3)ccc2N2CC[C@H]1C2` [Example 786], the “Tryp AVG EC1.5 (μM)” value was “B (B (EC1.5 1-25 μM))”. With `CC(C)(C)OC(=O)NCCNC(=N)c1ccc(NC(=O)N2c3nc(-c4cccc(C(F)(F)F)c4)ccc3N3CCC[C@H]2C3)cc1` [Example 788] the “Tryp AVG EC1.5 (μM)” value was “A (A (EC1.5<1 μM))”. For `CC(=O)NCc1ccc(NC(=O)N2c3nc(-c4cccc(C(F)(F)F)c4)ccc3N3CCC[C@H]2C3)cc1` [Example 790], the “Tryp AVG EC1.5 (μM)” value was “A (A (EC1.5<1 μM))”. In the case of `N=C(NCCN)c1ccc(NC(=O)N2c3nc(-c4cccc(C(F)(F)F)c4)ccc3N3CCC[C@H]2C3)cc1` [Example 792], the “Tryp AVG EC1.5 (μM)” value was “A (A (EC1.5<1 μM))”. For `CC(C)(C)OC(=O)NCc1ccc(NC(=O)N2c3nc(-c4cccc(C(F)(F)F)c4)ccc3N3CC[C@H]2C3)cc1` [Example 793], the “Tryp AVG EC1.5 (μM)” value was “B (B (EC1.5 1-25 μM))”. With `CC(C)(C)OC(=O)NCc1cccc(-c2ccc3c(n2)N(C(=O)Nc2ccncc2)[C@H]2CCN3C2)c1` [Example 794] the “Tryp AVG EC1.5 (μM)” value was “B (B (EC1.5 1-25 μM))”. `CC(C)(C)OC(=O)NCc1cccc(-c2ccc3c(n2)N(C(=O)Nc2ccncc2)[C@H]2CCCN3C2)c1` [Example 795] was tested, and the “Tryp AVG EC1.5 (μM)” value was “B (B (EC1.5 1-25 μM))”.

Same assay, conditions: percent maximum fold activation of SIRT1; Trp peptide substrate; read-out: Tryp % Fold Act
`CC(C)(C)OC(=O)NCCCc1cc(NC(=O)N2c3nc(-c4cccc(C(F)(F)F)c4)ccc3N3CCC[C@H]2C3)cc(-c2cnco2)c1` [Example 754] was tested, and the Emax was greater than 150%. `NCCCc1cc(NC(=O)N2c3nc(-c4cccc(C(F)(F)F)c4)ccc3N3CCC[C@H]2C3)cc(-c2cnco2)c1` [Example 770] was tested, and the Emax was greater than 150%. Work on `CC(C)(C)OC(=O)NCc1cccc(-c2ccc3c(n2)N(C(=O)Nc2ccncc2)[C@H]2CCN3C2)c1` [Example 794] yielded an Emax greater than 150%.

Source: patent publication US9834558B2, “Substituted bridged urea analogs as sirtuin modulators” (GLAXOSMITHKLINE LLC, priority 2013, dated 2017)
